The values that follow are results of earlier work, collected in patent US12590059B2, “Process for the production of levetiracetam” (Suzhou BrightHope Pharmatech Co., Ltd, priority 2023, dated 2026).

The conditions of this data set: stated as known.

Take `CC[C@@H](C(N)=O)N1CCCC1=O` [Levetiracetam]: the solubility in water result is given as “about 100 g/100 mL water”.
